Laboratory results published in patent publication US20090053793A1, “Ethanol resistant and furfural resistant strains of E. coli FBR5 for production of ethanol from cellulosic biomass” (Rowan University, priority 2006, published 2009).

Test: Pilot batch fermentation in LB broth with xylose
Design: species or system E. coli
Details: pilot fermentations
Protocol: Pilot fermentation studies were conducted in a 3L fermentation vessel in conjunction with a BioFlo 3000 system (which is marketed by New Brunswick Scientific Co. of Edison, N.J.) to monitor temperature, dissolved oxygen, air flow rate, agitation rate and pH. The media used for fermentation consisted of LB broth, xylose at various concentrations, and ampicillin. For some runs, glucose was also added to the media (see the mixed sugar fermentation discussed in connection with FIG. 12 below). To ensure sterility, the fermentor, with the media inside, along with the condenser, and a flask of distilled water were autoclaved the day before each fermentation run. An overnight culture of the strain to be used in the fermentation was then grown the night before each run. The fermentor was connected to the BioFlo 3000 system when ready to begin the run. […] The nitrogen and water flows were then opened, whereby the fermentor was ready for the addition of the overnight culture. The following was then added to the fermentor: (1) 300 mL of sterile, filtered LB broth, (2) an amount of xylose determined as a function of the desired initial sugar concentration, (3) an amount of ampicillin such that the initial concentration in the fermentor was always 100 mg/L, and (4) the overnight culture, whereby fermentation began. […]

O=C[C@H](O)[C@@H](O)[C@H](O)CO [xylose]
xylose concentration found to inhibit cell growth and ethanol production: > 175 g/L
